Tests used:
anti-MG-KLH IgG [1] = assay: Differential fluorescence spectra of dye mixed with IgG fraction; type: binding, guinea-pig; conditions: for fluorescent ability upon mixing with anti-MG-KLH IgG: differential spectrum versus blank IgG
From the text: Since the differential spectra can remove problematic noises in the fluorescence analysis such as the fluorescence of a cell itself and Raman scattering of a solvent, it becomes possible to obtain the fluorescence spectrum purely pertaining to a sample.

anti-MG-KLH IgG [2] = assay: Absorption spectra of dye mixed with IgG fraction; type: binding, guinea-pig
Protocol: Concentrations of the aforementioned IgG fraction and MG solution were adjusted by dilution such that the protein concentration as described above and MG concentration would finally be 2 μM and 4 μM, respectively. Further, employing γ globulin of a guinea-pig as the control against anti-MG-KLH IgG (i.e., blank IgG), the absorption spectrum of a mixture of the IgG fraction and the MG solution was measured (See FIG. 3).

[3] = Absorbance of Malachite Green dilutions in PBS at 617 nm; type: physicochemical; conditions: 1 cm path
Protocol: Malachite Green is dissolved in a phosphate-buffered saline (hereinafter referred to as “PBS”) to prepare a series of dilutions in the concentration range of 4-4,000 nM.
Absorbance at a wavelength of 617 nm in these dilutions is measured with a Hitachi Model 557 two wavelength spectrophotometer using a quartz cell with a 1 cm optical path length and PBS as the reference (See Table 1), and a concentration—absorbance curve is prepared (See FIG. 6).

[4] = tested on: IgG fraction derived from Guinea-pig 1; assay: Fluorescence of Malachite Green dilutions mixed with the IgG fraction; type: binding; conditions: IgG fraction 0.2 μM, excitation 617 nm
Protocol: A series of dilutions of Malachite Green in PBS solutions are prepared by adding to the solutions, the IgG fraction according to the invention which has been derived from Guinea-pig 1 in certain amounts (with the final concentration being 0.2 μM), and by adjusting concentrations of the dye within the range of 0-12 nM.
Fluorescence of these dilutions is measured with a Hitachi Model 850 fluorescence spectrophotometer under the following conditions: in a quartz cell of optical path length of 1.0 cm at the excitation side; an excitation wavelength of 617 nm; an emission wavelength of 650 nm; a band-pass width of 5 nm at both excitation and emission sides; High gain of a photomultiplier; a time constant of 1.5 sec; and a fluorescence integration time of 30 sec. Thus, a concentration-fluorescence intensity curve is prepared (See FIG. 5).
The fluorescence intensity is expressed as output values (i.e., arbitrary, relative units) of the fluorescence spectrophotometer.

Question: What does the source list for `CN(C)c1ccc(C(=N)c2ccc(N(C)C)cc2)cc1.Cl` [Auramine O]?
Answer: fluorescent ability upon mixing with anti-MG-KLH IgG (anti-MG-KLH IgG [1]): manifests its fluorescent ability; change of absorption intensity in anti-MG-KLH IgG mixed solution (anti-MG-KLH IgG [2]): decline in the absorption intensity; shift of absorption spectrum in anti-MG-KLH IgG mixed solution (anti-MG-KLH IgG [2]): shift toward longer wavelengths

Question: With `CN(C)c1ccc(C(=C2C=CC(=[N+](C)C)C=C2)c2ccccc2)cc1` [Malachite Green] as the molecule, how does the “Absorbance (617 nm)” value ([3]; 4 nM in PBS) read?
Answer: 0

Question: What about the “Absorbance (617 nm)” value ([3]; 12 nM in PBS) of the same molecule?
Answer: 0

Question: And the “Absorbance (617 nm)” value ([3]; 40 nM in PBS)?
Answer: 0.002

Question: And the “Absorbance (617 nm)” value ([3]; 120 nM in PBS)?
Answer: 0.009

Question: What about the “Absorbance (617 nm)” value ([3]; 400 nM in PBS) of the same molecule?
Answer: 0.036

Question: And the “Absorbance (617 nm)” value ([3]; 1200 nM in PBS)?
Answer: 0.132

Question: And the “Absorbance (617 nm)” value ([3]; 4000 nM in PBS)?
Answer: 0.464

Question: And the “Fluorescence intensity (650 nm)” value ([4]; 0.04 nM dye)?
Answer: 0.026 arbitrary, relative units

Question: What about the “Fluorescence intensity (650 nm)” value ([4]; 0.12 nM dye) of the same molecule?
Answer: 0.034 arbitrary, relative units

Question: What about the “Fluorescence intensity (650 nm)” value ([4]; 0.4 nM dye) of the same molecule?
Answer: 0.066 arbitrary, relative units

Question: And the “Fluorescence intensity (650 nm)” value ([4]; 1.2 nM dye)?
Answer: 0.18 arbitrary, relative units

Question: And the “Fluorescence intensity (650 nm)” value ([4]; 4 nM dye)?
Answer: 0.487 arbitrary, relative units

Question: What about the “Fluorescence intensity (650 nm)” value ([4]; 12 nM dye) of the same molecule?
Answer: 1.22 arbitrary, relative units

Question: And the “increase of fluorescence quantum yield” value (anti-MG-KLH IgG [1]; by the treatment according to the invention)?
Answer: over 1,000 times

Question: What about the “fluorescent ability upon mixing with anti-MG-KLH IgG” value (anti-MG-KLH IgG [1]) of the same molecule?
Answer: fluorescent

Question: And the “shift of wavelength of absorption maximum to longer wavelength relative to dye alone” value (anti-MG-KLH IgG [2]; IgG 2 μM, MG 4 μM)?
Answer: 6-7 nm
